Results reported in patent US5140047A, “Lipoxygenase inhibitors” (SmithKline Beecham Corporation, priority 1991, dated 1992).
Read-outs that look alike come from different tables or passages of the source. One block for each molecule: values may come before it.

Legend:
myocardial infarction = details: dogs, Mullane et al. 1984; cited from earlier work
[1] = test system: human monocyte PGE2 production (cyclooxygenase activity); test: PGE2 production from human monocytes in vitro (A23187 stimulated, RIA); type: cell-based; details: for IC50: Homo sapiens, Monocyte
Method: (§1) Human monocytes were prepared from leukosource packs supplied by the American Red Cross. The leukosource packs were fractionated by a two-step procedure described by F. Colatta et al. (J. Immunology 132: 936, 1984) that uses sedimentation on Ficoll followed by sedimentation on Percoll. The monocyte fraction that results from this technique was composed of 80-90% monocytes with the remainder being neutrophils and lymphocytes. In addition, significant number of platelets are present.
(§2) The monocytes (10^6 cells) were placed into polypropylene tubes and used as a suspended culture. The assay buffer consisted of RPMI 1640 buffer, 2 mM glutamine, 2.5 mM HEPES and 2 mM CaCl2 (total volume 0.475 ml). Compounds (0.005 ml) were added in DMSO, and the cells were preincubated for 10 minutes at 37° C. with constant agitation. A23187 (2 uM) was used to stimulate the cells. After an additional 10 minutes, the buffer was collected by centrifugation (2500×g for 15 minutes), and stored at -70° C. until assayed. LTB4 production was measured by radioimmunassay which was performed according to the manufacturer's (Advanced Magnetics, Boston, Mass.) instructions. PGE2 was determined using an RIA kit supplied by New England Nuclear (Boston, Mass.).

[2] = test system: 5-LO activity (LTB4) in mouse whole blood; test: Ex vivo mouse blood eicosanoid assay (LTB4, A23187 stimulated); type: in vivo, mouse (CD1); details: po, per os; for inhibition at 10 mg/kg: read-out: ex vivo, % inh., heading: ex vivo, % inh., 30 min pre-treatment, mouse whole blood, A23187 60 uM
Method: In experiments when mice were used they were CD1 mice obtained from Charles River Breeding Laboratories, and within a single experiment the mice were age-matched. Their weight range was from 25 to 42 g. The test groups generally contained 3-6 animals.
Mice were pre-treated per os with vehicle or a test compound (dissolved in dimethylacetamide and diluted 1 to 10 with sesame oil) 30 minutes prior to removal of blood. The 5-lipoxygenase product LTB4, was extracted from whole blood following A23187 stimulation. Aliquots of pooled heparinized mouse blood (1 ml each aliquot) from male CD1 mice (Charles River) were placed into 4 ml polypropylene tubes. The tubes were preincubated for about five minutes at 37° C. A23187 (60 uM) was added to stimulate eicosanoid production. Several aliquots of blood were not stimulated and, thus, provided background levels for eicosanoid production. All tubes were incubated for about 30 minutes at 37° C. The blood samples were centrifuged at 400×g for about 15 minutes, and the plasma recovered for extraction. One volume of chilled acetonitrile was added to all at 5° C. The supernatants were recovered and diluted with 1% formic acid: 1% triethylamine to achieve a final concentration of 20% acetonitrile. These supernatants were then loaded onto the extraction cartridge that had been conditioned according to the Manufacturer's instructions (Solid Phase Extraction Columns, J. T. Baker, C18 3 ml size). The samples were washed with 3 ml of 1% formic acid: 1% triethylamine, air dried, and then washed with 3 ml of petroleum ether. After air drying again, the samples were eluted with methyl formate. The eluents were concentrated under vacuum. The concentrates were resuspended in 30% acetonitrile buffered with 50 mM ammonium acetate ([…]). The recovery of LTB4 was 60%. The 300 ul concentrates were assayed by radioreceptor assay for LTB4 by labortatory protocol.
Mean values for groups were calculated and percent inhibition was determined between the vehicle control mean and test group. […]

[3] = test system: eicosanoid production in human whole blood; test: Inhibition of eicosanoid production following calcium ionophore stimulation in human whole blood; type: cell-based; details: calcium ionophore 60 μM
Method: The eicosanoids, which include the 5-lipoxygenase product LTB4, transLTB4, 20-hydroxyLTB4, 5-HETE, and the 12-lipoxygenase product are extracted from the whole blood following A23187 calcium ionophore stimulation. The extracts are separated by reverse phase high pressure liquid chromatography and quantified by absorbance methods.
Venous human blood is collected into polypropylene tubes containing 1% heparin. The blood is then aliquoted into 4.5 ml volumes and preincubated at 37° C. for 6 minutes in polypropylene tubes (15 ml size). Compound or carrier (10 μL dimethylsulfoxide) is added 6 minutes prior to stimulation. Calcium ionophore (0.5 ml) is added, and the blood incubated for 6 minutes. Prostaglandin B2 (1 nmole) is added, and the blood extracted as described below.
The samples are centrifuged at 1000×g for 15 minutes at 5° C. The plasma is collected, and one volume of acetonitrile is added to the plasma. This suspension is then centrifuged at 1000×g for 15 minutes at 5° C. The supernatant is collected and diluted with 1.5 volumes of chilled aqueous 1% formic acid. This mixture is loaded onto a preconditioned J. T. Baker C18 SPE cartridge (Phillipsburg, N.J.) at a flow rate of 1-2 ml/minute. (The cartridge is preconditioned according to manufacture's recommendations.) The absorbed sample is washed in the following order with three (3) ml each of (i) aqueous 1% formic acid: 1% triethylamine; and (ii) petroleum ether.
The eicosanoids are eluted in 3 ml of methyl formate. The solvent is removed under vacuum. The sample is resuspended in […] of 50% acetonitrile buffered with ammonium acetate. […]
The eicosanoids in the samples are verified by their retention times and their UV absorbance spectra. The peaks are quantified with reference to the internal standard and their absorbance response at their maximum absorbance wavelength.

[4] = test system: human monocyte LTB4 production; test: LTB4 production from human monocytes in vitro (A23187 stimulated, RIA); type: cell-based
Method: as §1, §2

[5] = molecular target: T1, 5-lipoxygenase (5-LO) isolated from extracts of RBL-1 cells (Rattus norvegicus, UniProt P12527); test: 5-LO activity, RBL-1 supernatant, oxygen consumption; type: biochemical; details: RBL-1 supernatant 5-LO enzyme; 10 uM arachidonic acid, 20° C.; read-out: 5-LO IC-50
T1 construct: isolated from extracts of RBL-1 cells; endogenous in cells; host or cells: RBL-1 cells (cell extract / supernatant)
T1 sequence (P12527 1-673): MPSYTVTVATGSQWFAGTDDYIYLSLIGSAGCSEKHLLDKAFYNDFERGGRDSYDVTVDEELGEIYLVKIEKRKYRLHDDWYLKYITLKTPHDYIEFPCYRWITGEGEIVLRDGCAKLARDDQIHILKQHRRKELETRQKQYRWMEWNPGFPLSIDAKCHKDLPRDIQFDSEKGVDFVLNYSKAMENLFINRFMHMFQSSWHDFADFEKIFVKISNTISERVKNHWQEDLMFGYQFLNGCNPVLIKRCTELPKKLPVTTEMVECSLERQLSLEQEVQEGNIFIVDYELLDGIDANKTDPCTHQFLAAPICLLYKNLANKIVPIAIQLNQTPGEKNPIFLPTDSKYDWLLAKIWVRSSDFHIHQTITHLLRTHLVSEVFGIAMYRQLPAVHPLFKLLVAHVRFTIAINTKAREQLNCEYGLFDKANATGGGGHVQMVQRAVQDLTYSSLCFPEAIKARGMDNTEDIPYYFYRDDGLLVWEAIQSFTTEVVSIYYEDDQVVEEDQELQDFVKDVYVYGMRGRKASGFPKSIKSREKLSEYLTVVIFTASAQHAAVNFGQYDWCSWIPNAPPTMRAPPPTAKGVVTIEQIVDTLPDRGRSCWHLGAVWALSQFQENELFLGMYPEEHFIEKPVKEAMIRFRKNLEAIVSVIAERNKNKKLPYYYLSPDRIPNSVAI
Method: The 5-lipoxygenase (5-LO) was isolated from extracts of RBL-1 cells. The assay for assessing inhibition of the 5-LO activity was a continuous assay which monitored the consumption of oxygen (O2). The cell extract (100 ug) was preincubated with the inhibitor or its vehicle in 25 mM BisTris buffer (pH 7.0) that contained 1 mM EDTA, 1 mM ATP, 150 mM NaCl and 5% ethylene glycol for 2 minutes at 20° C. (total volume 2.99 ml). Arachidonic acid (10 uM) and CaCl2 (2 mM) were added to start the reaction, and the decrease in O2 concentration followed with time using a Clark-type electrode and the Yellow Spring O2 monitor (type 53) (Yellow Springs, Ohio). The optimum velocity was calculated from the progress curves. All compounds were dissolved in ethanol with the final concentration of ethanol being 1% in the assay. Drug-induced effects on enzyme activities are described as the concentration of drug causing a 50% inhibition of oxygen consumption (IC50).

rheumatoid arthritis = details: preliminary observation, Neumann et al. 1983; cited from earlier work
[6] = test system: LTB4 and 5-HETE production; details: Stenson et al. 1982; cited from earlier work
psoriasis = details: Allen et al. 1983; cited from earlier work
lipoxygenase = details: cited from earlier work

SMILES: NC1=NN(c2cccc(C(F)(F)F)c2)CC1 [BW755-C]
area of infarction following coronary occlusion (myocardial infarction): reduced

SMILES: NC(=O)N(O)C1CCCc2c1ccc1ccccc21 (stereo not shown) [Example 1, N-1-(1,2,3,4-Tetrahydrophenanthrenyl)-N-hydroxyurea]
IC50 ([1]; A23187 2 uM, Table 1, read-out: human monocyte-IC50, PGE2): > 30 µM
IC50 ([1]; read-out: IC50, production of the prostaglandin PGE2 (human monocyte)): > 30 µM
cyclooxygenase activity as indicated by production of PGE2 ([1]; result in words): did not inhibit cyclooxygenase activity
ED50 ([2]; 0.5 h, mouse whole blood ex vivo, A23187, linear regression, read-out: ED50 (inhibition of 5-LO activity ex vivo)): 2.5 mg/kg
inhibition at 10 mg/kg [2]: 86%
IC50 [3]: > 10 µM
IC50 ([4]; A23187 2 uM, Table 1, read-out: human monocyte-IC50, LTB4): 1.6 µM
IC50 ([4]; read-out: IC50, production of LTB4 in the human monocyte): 1.6 µM
IC50 [5]: 4.2 µM

SMILES: O=C(O)c1cc(/N=N/c2ccc(S(=O)(=O)Nc3ccccn3)cc2)ccc1O [Sulfasalazine]
efficacy in rheumatoid arthritic patients (rheumatoid arthritis): efficacy, including remission
inhibition of LTB4 and 5-HETE production in vitro [6]: inhibit LTB4 and 5-HETE production in vitro

SMILES: CC(C(=O)O)c1ccc2oc(-c3ccc(Cl)cc3)nc2c1 (stereo not shown) [benoxaprofen]
effect on psoriasis (psoriasis): promising effect
in vitro lipoxygenase inhibitory activity (lipoxygenase): in vitro lipoxygenase inhibitory activity

Continued, in another order:

IC50 [3]: > 10 µM
IC50 [5]: 5.6 µM
SMILES: NC(=O)N(O)C1COc2c1ccc1ccccc21 (stereo not shown) [Example 2]
inhibition at 10 mg/kg [2]: 92%

IC50 [3]: > 10 µM
IC50 [5]: 8 µM
SMILES: NC(=O)N(O)C1COc2ccc3ccccc3c21 (stereo not shown) [Example 3]
